Experimental data as given in patent US8835489B2, “Compounds of the pterocarpanquinone family, method for preparing the same, pharmaceutical composition containing the new compounds of the pterocarpanquinone family, uses and therapeutic method” (Universidade Federal Do Rio de Janeiro, priority 2008, dated 2014).

What was measured:
TNF-α release by PBMC = experiment: LPS-stimulated release of TNF-α by PBMC in vitro; type: cell-based, human; settings: FIG. 3, p<0.05
Method: Mononuclear cells were obtained from peripheral blood of healthy donors by gradient centrifugation in Ficoll. 20 ml peripheral blood were carefully added to 16 mL of Ficoll followed by centrifugation at 1500×g for 30 minutes. Once collected, the PBMC were washed twice with saline and resuspended in culture field RPMI 1640 containing 0.1 mg streptomycin/mL, penicillin 100 U/mL and supplemented with 10% of FCS. The PBMC resuspended in RPMI were seeded in 24-well plate (8×10^5 cells/well). The cells were incubated with LPS at a concentration of 2 μg/mL at 37° C. in 4% CO2 for 2 hours. After incubation with LPS, the supernatant was collected and centrifuged at 14,000×g for 1 minute to rule out any possible cell. The supernatant was stored at −20° C. for subsequent cytokine. […] A group of cells received only the vehicle.

neutrophils in LBA = experiment: LPS inhalation in mice, neutrophils in bronchoalveolar lavage; settings: in vivo, FIG. 4, p<0.05 compared to vehicle group
Method: For inhalation of LPS, we used a glass inhalation chamber with a volume of 1 liter, with a capacity of 8 mice. The mice were placed in this chamber for five minutes and inhaled aerosols produced by positive pressure of 2 mL of a suspension of LPS containing 0.5 mg/mL, prepared in physiological saline (NaCl 0.9%). The control group inhaled saline only. Groups of animals were treated with LQB dissolved in physiological saline with 10% ethanol (vehicle) at doses of 1, 10 and 100 mg/kg. The substances were administered in a volume of 200 μL intraperitoneal (ip) 1 hour before LPS inhalation. In parallel, groups of animals were treated with 200 μL of the vehicle. Three hours after inhalation of LPS, animals were sacrificed by cervical dislocation, their tracheas were exposed, cannulated and lungs were washed with saline to a final volume of 1.5 mL in tubes kept at 4° C. […] An aliquot of 300 μL of lavage was used to count and identify the cells and the remainder was centrifuged at 1,500×g for 10 minutes (Sorvall, USA). […] The total number of cells was determined in a cell counter type Coulter Counter (Coulter Electronics Inc.—USA). The identification of different cell types present in BAL cytospin was made after 200 μl of LBA at 80×g for 1 minute (Shandon—USA). The slides prepared from cytospin stained with Diff-Quick kit (Shandon, USA). We counted approximately 200 cells on each slide. […]

## O=C1C2=C(C(=O)c3ccccc31)[C@H]1Oc3ccccc3[C@H]1CO2 [LQB1]
TNF-α release by PBMC
  release of TNF-α by PBMC: inhibiting release of TNF-α
Neutrophils in LBA
  release of neutrophils in LBA: inhibiting the release of neutrophils
